From article PMC8375664 (Frontiers in Endocrinology, 2021)
pEC50, pIC50: −log10 of the molar value. Bridge positions count the residues as written; N and C are the ends. Square brackets hold non-standard residues; d marks the D form. Peptide text beside a SMILES is read from it. d2Nal = N[C@H](Cc1ccc2ccccc2c1)C(=O)O

Tests used:
human MC4R = human MC4R (Homo sapiens, UniProt P32245); assay: cAMP production by human MC4R in transfected COS-7 cells (agonist mode)
rat MC4R [1] = molecular target: T1, rat MC4R (Rattus norvegicus, UniProt P70596); assay: cAMP production by rat MC4R in transfected COS-7 cells (agonist mode)
rat MC4R [2] = molecular target: T1, rat MC4R; assay: Inhibition of agonist-induced cAMP production by rat MC4R in transfected COS-7 cells (antagonist mode)
[3] = system: human gut specimens (duodenum, ileum and colon); conditions: incubation of human gut specimens from duodenum; cited from earlier work
Description: Glucagon-like peptide-1 (GLP-1) is a gastrointestinal hormone that is secreted from intestinal L-cells after meal intake. It acts to inhibit appetite and potentiate glucose-stimulated insulin secretion ([1]–[3]). These actions led to the development of GLP-1 based drugs, which have been used for more than a decade for type-2-diabetes treatment and recently also to induce weight loss. In parallel with the development and refinement of GLP-1 based drugs, research has been directed at uncovering the molecular mechanisms responsible for GLP-1 secretion, aiming to create a therapeutically relevant ...

[4] = system: isolated perfused rat distal small intestine; assay: GLP-1 secretion from isolated perfused rat distal small intestine
Description: Male Wistar rats (~250 g) and male C57BL/6JRj mice (~28 g, 11–12 weeks) were purchased from the Janvier Labs (Le Genest-Saint-Isle, France). Mice and rats were housed with ad libitum access to standard chow and water following a 12:12 h light:dark cycle and were acclimatized for a least a week before experiments. On the day of experiment, rats and mice were transferred to our perfusion facility and anesthetized with a subcutaneous injection of hypnorm/midazolam (rats) (0.3 ml/100 g body weight, per ml: 0.08 mg fentanyl, 2.5 mg fluanisone, 0.45 mg Methyl Parahydroxybenzoate, 0.05 mg Propyl Parahydroxybenzoate, Midazolam: 1.25 mg, Matrix Pharmaceuticals, Hellerup, Denmark) or with an intraperitoneal injection of Ketamine/Xylazine (0.1 ml/20 g) (90 mg/kg Ketamine, Ketaminol Vet, MSD Animal Health; 10 mg/kg Xylazine, Rompun Vet., Bayer Animal Health) respectively, to block the activity of pain sensing nerves and to induce surgical anesthesia. For distal perfusions, the rat or mouse was placed on a heated operating table (37°C), the abdominal cavity was opened by a mid-line incision and the large intestine was excised after tying off the supplying vasculature. Furthermore, the upper half of the small intestine was removed. In the rat, the lower half of the small intestine (~50 cm) was retained and perfused in situ after insertion of a catheter into the upper mesenteric artery, while perfusion effluent was collected through a catheter inserted in the portal vein. […]
(§1) Total GLP-1 concentrations in venous effluents were quantified using an in-house RIA (code: 89390) ([23]). […] Samples were assayed non-extracted and concentrations were calculated by a four-parameter interpolation to a standard curve containing synthetic GLP-1 7–36 amide (H-6795-GMP, Bachem, Bubendorf, Switzerland) ranging from 5 to 320 pmol/L. I^125-labeled GLP-1 7–36 amide (a gift from Novo Nordisk A/S, Bagssværd, Denmark) was used as tracer. […]

[5] = system: isolated perfused mouse small intestine, upper half; assay: GLP-1 secretion from isolated perfused mouse small intestine, upper half; conditions: vascular administration at end of experiments
Description: (§2) Male Wistar rats (~250 g) and male C57BL/6JRj mice (~28 g, 11–12 weeks) were purchased from the Janvier Labs (Le Genest-Saint-Isle, France). Mice and rats were housed with ad libitum access to standard chow and water following a 12:12 h light:dark cycle and were acclimatized for a least a week before experiments. On the day of experiment, rats and mice were transferred to our perfusion facility and anesthetized with a subcutaneous injection of hypnorm/midazolam (rats) (0.3 ml/100 g body weight, per ml: 0.08 mg fentanyl, 2.5 mg fluanisone, 0.45 mg Methyl Parahydroxybenzoate, 0.05 mg Propyl Parahydroxybenzoate, Midazolam: 1.25 mg, Matrix Pharmaceuticals, Hellerup, Denmark) or with an intraperitoneal injection of Ketamine/Xylazine (0.1 ml/20 g) (90 mg/kg Ketamine, Ketaminol Vet, MSD Animal Health; 10 mg/kg Xylazine, Rompun Vet., Bayer Animal Health) respectively, to block the activity of pain sensing nerves and to induce surgical anesthesia. […]
as §1

[6] = system: isolated perfused distal mouse small intestine; assay: GLP-1 secretion from isolated perfused mouse small intestine, distal part; conditions: vascular administration at end of experiment
Description: as §2, §1

T1 sequence (P70596 whole entry): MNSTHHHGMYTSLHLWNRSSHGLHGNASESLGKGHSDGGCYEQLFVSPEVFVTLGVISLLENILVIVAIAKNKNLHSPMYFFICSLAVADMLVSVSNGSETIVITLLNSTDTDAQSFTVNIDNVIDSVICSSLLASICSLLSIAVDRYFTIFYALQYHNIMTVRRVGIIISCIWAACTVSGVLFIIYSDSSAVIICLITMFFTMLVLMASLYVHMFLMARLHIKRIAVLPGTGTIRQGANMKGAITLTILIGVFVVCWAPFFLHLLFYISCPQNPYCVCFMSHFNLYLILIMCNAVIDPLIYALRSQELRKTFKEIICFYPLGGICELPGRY
Chain of human MC4R (P32245 whole entry): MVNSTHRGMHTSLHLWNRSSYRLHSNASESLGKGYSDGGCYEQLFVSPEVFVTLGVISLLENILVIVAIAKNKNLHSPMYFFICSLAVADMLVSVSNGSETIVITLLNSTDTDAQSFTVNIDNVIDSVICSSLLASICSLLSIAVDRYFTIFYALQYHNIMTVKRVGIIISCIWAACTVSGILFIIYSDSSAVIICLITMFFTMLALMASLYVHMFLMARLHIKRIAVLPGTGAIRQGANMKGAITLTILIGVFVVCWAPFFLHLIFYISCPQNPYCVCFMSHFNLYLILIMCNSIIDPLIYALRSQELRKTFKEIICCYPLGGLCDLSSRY

Compound: CC(=O)N[C@H]1CSSC[C@@H](C(=O)N2CCC[C@H]2C(=O)N2CCC[C@H]2C(=O)N[C@@H](CCCCN)C(=O)N[C@@H](CC(=O)O)C(N)=O)NC(=O)CNC(=O)[C@H](Cc2c[nH]c3ccccc23)NC(=O)[C@H](CCCNC(=N)N)NC(=O)[C@@H](Cc2ccc3ccccc3c2)NC(=O)[C@H](Cc2c[nH]cn2)NC(=O)[C@H](CCC(=O)O)NC1=O [HS014] (Ac-CEH[d2Nal]RWGCPPKD-NH2; disulfide 1-8)
- pEC50 (human MC4R): 7.46
- pEC50 (rat MC4R [1]): 7.80
- Emax (rat MC4R [1]; COS-7, read-out: Emax on rat MC4R relative to alpha-MSH Emax): ~40%
- pIC50 (rat MC4R [2]): 8.20

Compound: CC(=O)N[C@@H](C)c1cc(Cl)ccc1C1CCN(C(=O)[C@@H]2CN(C(C)(C)C)C[C@H]2c2ccc(F)cc2F)CC1 [MK-0493]
- effect on GLP-1 and PYY secretion [3]: increased

Compound: OC[C@H]1OC(O)[C@H](O)[C@@H](O)[C@@H]1O (stereo partly shown) [glucose]
- total GLP-1 output during first luminal glucose stimulation, control experiment ([4]; luminal glucose 20% w/v, 15 min, baseline 1.8 ± 0.2 pmol, P <0.001, n = 6): 4.8 ± 0.34 pmol
- total GLP-1 output during first luminal glucose stimulation, glucose + HS014 experiment (before HS014) ([4]; luminal glucose 20% w/v, 15 min, baseline 2.0 ± 0.5 pmol, P = 0.01, n = 6): 5.6 ± 1.0 pmol
- fold increase of GLP-1 secretion by luminal glucose ([4]; luminal glucose infusion): 2–3 fold

Compound: bombesin
- effect on GLP-1 output (positive control) [5]: robustly increased GLP-1 output
- effect on GLP-1 output (positive control) [6]: robustly increased GLP-1 output
